The results in this text go back to US7803801B2, “Aminopyridine compounds having Syk inhibitory activity” (Japan Tobacco, Inc., priority 2005, dated 2010).

Where two headings read alike, the source gives them in different places.

Assay [1] relates to cultured human mast cells. The experiment in a line: Degranulation inhibition test using cultured human mast cells (IgE cross-linking, β-Hexosaminidase release). Format: cell-based. The conditions noted are these: Mast cell, cultured human mast cells, anti-hIgE stimulation, β-Hexosaminidase index, average, read-out: human degranulation ave. IC50. The gist of the method: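 Degranulation was triggered by anti-hIgE (10 μg/mL final, 30 min, 37 °C) after a 10-min compound pretreatment (DMSO 0.1%) of cord-blood CD34+-derived mast cells primed 5 days with IL-4 and IgE. β-Hexosaminidase in supernatant was measured with p-nitrophenyl-GlcNAc substrate (A405), expressed against water-lysed total; IC50 (M).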

Assay [2] concerns the target GST-Syk Full Protein (human) (Homo sapiens, UniProt P43405). The experiment in a line: Syk kinase inhibition test (HTRF method). It counts as biochemical. The following applies: HTRF, 100 μM ATP, 30 min room temperature, average; read-out: sykHTRF ave IC50. The gist of the method:
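HTRF read-out: after EDTA termination and 1 h with XL665-streptavidin and Eu-anti-phosphotyrosine, the 665/620 nm ratio was measured. The reaction ran 30 min at 20–25 °C with final 6.4 nM human GST-Syk, 250 nM biotinylated peptide, 100 μM ATP, pH 7.0 HEPES buffer, 2% DMSO.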
(Time-resolved FRET reads energy transfer from a long-lived donor to a nearby acceptor.)

As for `Cc1ccnc(Nc2cccc(-c3cnc([C@H]4CC[C@H](CN)CC4)s3)n2)c1` [Compound A-219, trans-4-{5-[6-(4-methylpyridin-2-ylamino)pyridin-2-yl]thiazol-2-yl}cyclohexylmethylamine], the figures for the IC50 in assay [1] and in assay [2] were > 1000 nM and < 100 nM, respectively.

As for `CC(=O)Nc1ccc(CCc2ncc(-c3cccc(Nc4cc(C)ccn4)n3)s2)cc1` [Compound A-220], the IC50 in assay [1] and in assay [2] was 100 to 1000 nM each time.

Regarding `Cc1ccnc(Nc2cccc(-c3cnc(CCc4ccc(NS(C)(=O)=O)cc4)s3)n2)c1` [Compound A-221], the results for the IC50 in assay [1] and in assay [2] were > 1000 nM and 100 to 1000 nM, respectively.

Turning to `Cc1ccnc(Nc2cccc(-c3cnc(CC(=O)OC(C)(C)C)s3)n2)c1` [Compound A-222], the results for the IC50 in assay [1] and in assay [2] were > 1000 nM and 100 to 1000 nM, respectively.

As for `Cc1ccnc(Nc2cccc(-c3cnc(CCc4ccc(C(=O)N5C[C@@H](O)[C@@H](O)C5)cc4)s3)n2)c1` [Compound A-223, ((3R,4S)-3,4-dihydroxypyrrolidin-1-yl)-[4-(2-{5-[6-(4-methylpyridin-2-ylamino)pyridin-2-yl]thiazol-2-yl}ethyl)phenyl]methanone], the IC50 was 100 to 1000 nM in assay [1] and < 100 nM in assay [2].

`Cc1ccnc(Nc2cccc(-c3cnc(Cc4ccc(C(=O)O)cc4)s3)n2)c1` [Compound A-224]: the results for the IC50 in assay [1] and in assay [2] were > 1000 nM and 100 to 1000 nM, respectively.

As to `Cc1ccnc(Nc2cccc(-c3cnc([C@H]4CC[C@H](C(=O)N5CC[C@H](O)[C@@H](O)C5)CC4)s3)n2)c1` [Compound A-225], the IC50 in assay [1] and in assay [2] was 100 to 1000 nM throughout.

Take `Cc1ccnc(Nc2cccc(-c3cnc([C@H]4CC[C@H](C(=O)N5C[C@H](O)C[C@@H](O)C5)CC4)s3)n2)c1` [Compound A-226]: the IC50 in assay [1] and in assay [2] was 100 to 1000 nM throughout.

`Cc1ccnc(Nc2cccc(-c3cnc([C@H]4CC[C@H](C(=O)N5C[C@H](O)C[C@H](O)C5)CC4)s3)n2)c1` [Compound A-227]: the IC50 in assay [1] and in assay [2] was 100 to 1000 nM each time.

For the molecule `CC(=O)NC[C@H]1CC[C@H](c2ncc(-c3cccc(Nc4cc(C)ccn4)n3)s2)CC1` [Compound A-228, N-(trans-4-{5-[6-(4-methylpyridin-2-ylamino)pyridin-2-yl]thiazol-2-yl}cyclohexylmethyl)acetamide], the figures for the IC50 in assay [1] and in assay [2] were 100 to 1000 nM and < 100 nM, respectively.

For `Cc1ccnc(Nc2cccc(-c3cnc([C@H]4CC[C@H](CNS(C)(=O)=O)CC4)s3)n2)c1` [Compound A-229, N-(trans-4-{5-[6-(4-methylpyridin-2-ylamino)pyridin-2-yl]thiazol-2-yl}cyclohexylmethyl)methanesulfonamide], the IC50 in assay [1] was 100 to 1000 nM; in assay [2] it was < 100 nM.

For `Cc1ccnc(Nc2cccc(-c3cnc(CC(=O)N4CCC(O)CC4)s3)n2)c1` [Compound A-230], the IC50 in assay [1] was > 1000 nM; in assay [2], 100 to 1000 nM.

In the case of `Cc1ccnc(Nc2cccc(-c3cnc(C)s3)n2)c1` [Compound A-231], the IC50 in assay [1] and in assay [2] was 100 to 1000 nM throughout.

Regarding `Cc1ccnc(Nc2cccc(-c3cnc(Cc4cccs4)s3)n2)c1` [Compound A-232], the IC50 in assay [1] was > 1000 nM; in assay [2], 100 to 1000 nM.

For the molecule `Cc1ccnc(Nc2cccc(-c3cnc(CCc4ccc(C(=O)N5CCC(O)CC5)cc4)s3)n2)c1` [Compound A-233], the IC50 in assay [1] and in assay [2] was 100 to 1000 nM throughout.

Regarding `Cc1ccnc(Nc2cccc(-c3cnc(Cc4ccc(C(=O)N5CCC(O)CC5)cc4)s3)n2)c1` [Compound A-234], the IC50 in assay [1] and in assay [2] was > 1000 nM each time.

For the molecule `Cc1ccnc(Nc2cccc(-c3cnc([C@H]4CC[C@H](CNC(=O)CO)CC4)s3)n2)c1` [Compound A-235, 2-hydroxy-N-(trans-4-{5-[6-(4-methylpyridin-2-ylamino)pyridin-2-yl]thiazol-2-yl}cyclohexylmethyl)acetamide], the IC50 in assay [1] is 100 to 1000 nM; in assay [2], < 100 nM.

`Cc1ccnc(Nc2cccc(-c3cnc(CN4CCC(NS(C)(=O)=O)CC4)s3)n2)c1` [Compound A-236]: the IC50 in assay [1] and in assay [2] was 100 to 1000 nM each time.

Take `Cc1ccnc(Nc2cccc(-c3cnc(CCc4ccc(NC(=O)CO)cc4)s3)n2)c1` [Compound A-237, 2-hydroxy-N-[4-(2-{5-[6-(4-methylpyridin-2-ylamino)pyridin-2-yl]thiazol-2-yl}ethyl)phenyl]acetamide]: the values for the IC50 in assay [1] and in assay [2] were 100 to 1000 nM and < 100 nM, respectively.

For the molecule `Cc1ccnc(Nc2cccc(-c3cnc([C@H]4CC[C@H](C(=O)N5CCCC(O)C5)CC4)s3)n2)c1` (stereo partly shown) [Compound A-238], the IC50 in assay [1] and in assay [2] was 100 to 1000 nM throughout.

For the molecule `Cc1ccnc(Nc2cccc(-c3cnc([C@H]4CC[C@H](C(=O)N5CC[C@H](O)[C@H](O)C5)CC4)s3)n2)c1` [Compound A-239, ((3R,4S)-3,4-dihydroxypiperidin-1-yl)-(trans-4-{5-[6-(4-methylpyridin-2-ylamino)pyridin-2-yl]thiazol-2-yl}cyclohexyl)methanone], the IC50 in assay [1] is 100 to 1000 nM; in assay [2] it was < 100 nM.

Regarding `Cc1ccnc(Nc2cccc(-c3cnc([C@H]4CC[C@H](C(=O)N5CC[C@@H](O)C5)CC4)s3)n2)c1` [Compound A-241, ((R)-3-hydroxypyrrolidin-1-yl)-(trans-4-{5-[6-(4-methylpyridin-2-ylamino)pyridin-2-yl]thiazol-2-yl}cyclohexyl)metanone], the IC50 is > 1000 nM in assay [1] and < 100 nM in assay [2].

For the molecule `Cc1ccnc(Nc2cccc(-c3cnc([C@H]4CC[C@H](C(=O)N5CCC(CO)CC5)CC4)s3)n2)c1` [Compound A-242], the IC50 in assay [1] and in assay [2] was 100 to 1000 nM throughout.

For the molecule `Cc1ccnc(Nc2cccc(-c3cnc(Cc4ccc(CO)cc4)s3)n2)c1` [Compound A-243, (4-{5-[6-(4-methylpyridin-2-ylamino)pyridin-2-yl]thiazol-2-ylmethyl}phenyl)methanol], the IC50 in assay [1] is 100 to 1000 nM; in assay [2], < 100 nM.

As to `Cc1ccnc(Nc2cccc(-c3cnc(Cc4ccc(C(=O)N5C[C@@H](O)[C@@H](O)C5)cc4)s3)n2)c1` [Compound A-244], the IC50 in assay [1] and in assay [2] was 100 to 1000 nM in each case.

For the molecule `Cc1ccnc(Nc2cccc(-c3cnc(CCN)s3)n2)c1` [Compound A-245], the IC50 in assay [1] and in assay [2] was 100 to 1000 nM each time.

In the case of `Cc1ccnc(Nc2cccc(-c3cnc(CN4CCN(C(=O)CO)CC4)s3)n2)c1` [Compound A-246], the IC50 in assay [1] and in assay [2] was 100 to 1000 nM in each case.

For the molecule `Cc1ccnc(Nc2cccc(-c3cnc(CN4CCC(NC(=O)CO)CC4)s3)n2)c1` [Compound A-247], the IC50 in assay [1] and in assay [2] was 100 to 1000 nM throughout.

Turning to `Cc1ccnc(Nc2cccc(-c3cnc(Cc4cccnc4)s3)n2)c1` [Compound A-248, N-(4-methylpyridin-2-yl)-N-[6-(2-pyridin-3-ylmethylthiazol-5-yl)pyridin-2-yl]amine], the IC50 in assay [1] was 100 to 1000 nM; in assay [2] it was < 100 nM.

As to `Cc1ccnc(Nc2cccc(-c3cnc(CC4CCC(C(=O)O)CC4)s3)n2)c1` (stereo not shown) [Compound A-249], the IC50 in assay [1] and in assay [2] was 100 to 1000 nM each time.

With `Cc1ccnc(Nc2cccc(-c3cnc(C4CCN(C(=O)N5CCC(=O)CC5)CC4)s3)n2)c1` [Compound A-250], the IC50 in assay [1] (Homo sapiens) and in assay [2] was 100 to 1000 nM in each case.

Turning to `Cc1ccnc(Nc2cccc(-c3cnc(C4CCN(C(=O)N5CCC(O)CC5)CC4)s3)n2)c1` [Compound A-251], the IC50 in assay [1] and in assay [2] was 100 to 1000 nM each time.

Take `CCOC(=O)CNC(=O)NCc1ncc(-c2cccc(Nc3cc(C)ccn3)n2)s1` [Compound A-252]: the IC50 in assay [1] and in assay [2] was 100 to 1000 nM in each case.

For the molecule `Cc1ccnc(Nc2cccc(-c3cnc(CNC(=O)NCCO)s3)n2)c1` [Compound A-253], the IC50 in assay [1] and in assay [2] was 100 to 1000 nM in each case.

Take `Cc1ccnc(Nc2cccc(-c3cnc(CNC(=O)NCC(=O)O)s3)n2)c1` [Compound A-254]: the IC50 was > 1000 nM in assay [1] and 100 to 1000 nM in assay [2].

`Cc1ccnc(Nc2cccc(-c3cnc(CC(=O)N4C[C@@H](O)[C@@H](O)C4)s3)n2)c1` [Compound A-255]: the IC50 in assay [1] and in assay [2] was 100 to 1000 nM each time.

As for `CC(=O)NCCc1ncc(-c2cccc(Nc3cc(C)ccn3)n2)s1` [Compound A-256], the IC50 in assay [1] and in assay [2] was 100 to 1000 nM throughout.

`Cc1ccnc(Nc2cccc(-c3cnc(CCNC(=O)CO)s3)n2)c1` [Compound A-257]: the IC50 in assay [1] and in assay [2] was 100 to 1000 nM in each case.

As to `Cc1ccnc(Nc2cccc(-c3cnc(CCC4CCNCC4)s3)n2)c1` [Compound A-258, N-(4-methylpyridin-2-yl)-N-{6-[2-(2-piperidin-4-ylethyl)thiazol-5-yl]pyridin-2-yl}amine], the IC50 is > 1000 nM in assay [1] and < 100 nM in assay [2].

Take `CC(=O)N1CCC(CCc2ncc(-c3cccc(Nc4cc(C)ccn4)n3)s2)CC1` [Compound A-259]: the IC50 in assay [1] and in assay [2] was 100 to 1000 nM in each case.

With `Cc1ccnc(Nc2cccc(-c3cnc(CCC4CCN(S(C)(=O)=O)CC4)s3)n2)c1` [Compound A-260, N-(6-{2-[2-(1-methanesulfonylpiperidin-4-yl)ethyl]thiazol-5-yl}pyridin-2-yl)-N-(4-methylpyridin-2-yl)amine], the IC50 in assay [1] was 100 to 1000 nM; in assay [2], < 100 nM.

The term IC50 denotes the concentration at which inhibition is half-maximal.
